Data reported in patent US20220162192A1 (ESCAPE Bio, Inc., priority 2019, published 2022).
Read-outs that look alike come from different tables or passages of the source.

Key:
[1] = target: T1, Recombinant G2019S-LRRK2 protein (Homo sapiens, UniProt Q5S007, G2019S); experiment: LanthaScreen Kinase Activity Assay (TR-FRET), G2019S-LRRK2; assay type: biochemical; settings: class symbols; 25 μM ATP, 400 nM LRRKtide, 2.9 nM kinase, 60 min at room temperature
T1 construct: purchased Life Technologies PV4881
Description: (§1) LRRK2 kinase activity was measured using a LanthaScreen™ Kinase Activity Assay from ThermoFisher Scientific. Recombinant wild type or G2019S-LRRK2 protein (Life Technologies, PR8604B or PV4881, respectively), was incubated with a fluorescein-labeled peptide substrate called LRRKtide that is based upon ezrin/radixin/moesin (ERM) (Life Technologies, PV4901) in the presence of ATP and serially diluted compound. After an incubation period of 1 hr, the phosphotransferase activity was stopped and a terbium-labelled anti-pERM antibody (Life Technologies, PV4899) was added to detect the phosphorylation of LRRKtide by measuring the time resolved-Forster resonant energy transfer (TR-FRET) signal from the terbium label on the antibody to the fluorescein tag on LRRKtide, expressed as the 520 nm/495 nm emission ratio. Compound-dependent inhibition of the TR-FRET signal was used to generate a concentration-response curve for IC50 determination.
(§2) The assay was carried out under the following protocol conditions: 1 mM compound in DMSO was serially diluted 1:3, 11 points in DMSO with a Biomek FX and 0.1 μL of the diluted compound was subsequently stamped into the assay plate (384-well format Lumitrac 200, Greiner, 781075) with an Echo Labcyte such that the final compound concentration in the assay was 10 μM to […]. Subsequently, 5 μL of 2× kinase solution (2.9 nM final concentration) was added to the assay plate in assay buffer composed of 50 mM Tris pH 8.5 (Sigma, T6791), 5 mM MgCl2 (Fluka, 63020), 1 mM EGTA (Sigma, E3889), 0.01% BRIJ-35 (Sigma, P1254) and 2 mM DTT. The reaction was started by addition of 2×ATP/LRRKtide solution in assay buffer such that the final concentration was 400 nM LRRKtide and 25 μM ATP. After 60 min incubation at room temperature, the reaction was stopped by addition of […] containing a final concentration of 2 nM anti-pERM antibody and 10 mM EDTA. After a 30 min incubation at RT, the TR-FRET signal was measured on a Wallac 2104 EnVision® multilabel reader at an excitation wavelength of 340 nm and reading emission at 520 nm and 495 nm. The ratio of the 520 nm and 495 nm emission was used to analyze the data.

[2] = target: T2, Recombinant wild type LRRK2 protein (Homo sapiens, UniProt Q5S007); experiment: LanthaScreen Kinase Activity Assay (TR-FRET), wild type LRRK2; assay type: biochemical; settings: 25 μM ATP, 400 nM LRRKtide, 2.9 nM kinase, 60 min at room temperature, read-out: LRRK2 WT IC50
T2 construct: purchased Life Technologies PR8604B
Description: as §1, §2

[3] = numeric bound instead of class symbol

T1 sequence (Q5S007 whole entry G2019S): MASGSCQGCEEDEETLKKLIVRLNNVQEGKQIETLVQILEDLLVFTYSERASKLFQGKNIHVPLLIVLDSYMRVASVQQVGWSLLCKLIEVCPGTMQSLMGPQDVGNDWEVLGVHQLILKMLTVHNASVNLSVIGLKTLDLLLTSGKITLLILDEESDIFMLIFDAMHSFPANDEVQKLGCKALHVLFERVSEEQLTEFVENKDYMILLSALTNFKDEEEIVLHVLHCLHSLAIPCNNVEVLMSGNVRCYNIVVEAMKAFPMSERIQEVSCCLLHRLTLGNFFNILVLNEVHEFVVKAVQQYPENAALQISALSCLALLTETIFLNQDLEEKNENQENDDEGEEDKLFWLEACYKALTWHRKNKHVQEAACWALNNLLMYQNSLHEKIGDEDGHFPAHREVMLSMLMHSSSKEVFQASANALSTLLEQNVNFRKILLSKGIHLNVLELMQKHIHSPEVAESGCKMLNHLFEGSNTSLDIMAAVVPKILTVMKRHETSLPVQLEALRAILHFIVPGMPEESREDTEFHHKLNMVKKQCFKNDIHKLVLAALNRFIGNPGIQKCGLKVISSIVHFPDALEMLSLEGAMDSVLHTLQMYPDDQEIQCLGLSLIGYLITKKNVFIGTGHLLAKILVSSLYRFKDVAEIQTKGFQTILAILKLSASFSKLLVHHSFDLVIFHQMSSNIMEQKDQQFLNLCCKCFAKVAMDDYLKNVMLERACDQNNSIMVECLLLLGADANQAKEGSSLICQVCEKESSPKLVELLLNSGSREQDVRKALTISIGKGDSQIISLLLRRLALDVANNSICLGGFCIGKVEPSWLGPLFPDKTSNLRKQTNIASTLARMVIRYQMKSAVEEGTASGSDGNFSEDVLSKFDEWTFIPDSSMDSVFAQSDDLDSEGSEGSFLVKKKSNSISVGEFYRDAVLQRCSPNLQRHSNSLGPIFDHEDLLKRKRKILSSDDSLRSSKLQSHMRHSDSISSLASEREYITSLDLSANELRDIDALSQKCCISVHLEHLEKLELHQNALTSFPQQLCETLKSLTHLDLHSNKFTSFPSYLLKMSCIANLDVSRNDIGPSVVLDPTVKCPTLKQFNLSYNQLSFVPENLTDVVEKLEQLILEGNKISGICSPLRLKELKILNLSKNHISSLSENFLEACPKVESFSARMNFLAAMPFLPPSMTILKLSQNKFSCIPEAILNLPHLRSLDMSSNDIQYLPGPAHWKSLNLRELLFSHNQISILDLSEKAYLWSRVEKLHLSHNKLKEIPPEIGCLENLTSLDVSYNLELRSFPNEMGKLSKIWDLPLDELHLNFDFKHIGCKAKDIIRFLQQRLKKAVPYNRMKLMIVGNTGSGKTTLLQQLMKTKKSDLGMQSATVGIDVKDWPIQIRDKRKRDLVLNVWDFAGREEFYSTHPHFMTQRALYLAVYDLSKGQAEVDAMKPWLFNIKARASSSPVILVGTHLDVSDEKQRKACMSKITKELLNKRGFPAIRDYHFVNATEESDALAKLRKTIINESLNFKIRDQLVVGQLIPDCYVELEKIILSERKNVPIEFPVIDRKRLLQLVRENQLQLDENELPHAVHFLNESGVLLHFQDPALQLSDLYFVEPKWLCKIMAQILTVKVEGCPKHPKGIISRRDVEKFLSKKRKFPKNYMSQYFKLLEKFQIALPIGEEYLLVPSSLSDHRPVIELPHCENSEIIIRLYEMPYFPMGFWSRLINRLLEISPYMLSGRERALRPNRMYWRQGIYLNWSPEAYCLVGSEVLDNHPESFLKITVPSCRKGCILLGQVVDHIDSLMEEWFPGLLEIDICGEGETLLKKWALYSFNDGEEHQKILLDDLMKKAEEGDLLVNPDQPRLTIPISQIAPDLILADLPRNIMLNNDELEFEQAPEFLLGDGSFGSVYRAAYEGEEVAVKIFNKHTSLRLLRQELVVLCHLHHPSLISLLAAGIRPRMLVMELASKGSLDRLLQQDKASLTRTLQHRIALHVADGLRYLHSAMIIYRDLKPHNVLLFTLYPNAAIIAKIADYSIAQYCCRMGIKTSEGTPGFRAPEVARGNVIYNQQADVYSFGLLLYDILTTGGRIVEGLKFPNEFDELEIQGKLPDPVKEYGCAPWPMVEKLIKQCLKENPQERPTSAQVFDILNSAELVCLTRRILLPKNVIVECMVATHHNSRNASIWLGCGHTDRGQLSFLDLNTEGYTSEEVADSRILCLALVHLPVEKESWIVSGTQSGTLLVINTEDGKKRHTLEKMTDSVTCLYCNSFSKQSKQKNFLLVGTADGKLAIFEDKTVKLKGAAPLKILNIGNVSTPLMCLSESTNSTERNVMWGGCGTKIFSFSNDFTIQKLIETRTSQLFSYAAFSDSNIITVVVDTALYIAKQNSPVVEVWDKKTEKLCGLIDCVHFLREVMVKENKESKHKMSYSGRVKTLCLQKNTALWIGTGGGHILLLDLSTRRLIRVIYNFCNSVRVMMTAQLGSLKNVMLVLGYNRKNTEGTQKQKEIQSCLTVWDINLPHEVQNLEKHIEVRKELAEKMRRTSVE
T2 sequence (Q5S007 whole entry): as the sequence (Q5S007 whole entry G2019S) above, with S2019G counted along it

Row | IC50 [1] [nM] | IC50 ([2]; class symbols) [nM] | IC50 [2, 3] [nM] | SMILES
1 | ≤ 100 | ≤ 100 | – | Cc1cn2nc(C(=O)Nc3ccc4[nH]nc(-c5ccoc5)c4c3)cc2c(C)n1 [Example 163, N-(3-(Furan-3-yl)-1H-indazol-5-yl)-4,6-dimethylpyrazolo[1,5-a]pyrazine-2-carboxamide]
2 | ≤ 100 | ≤ 100 | – | Cc1ccc(-c2n[nH]c3ccc(NC(=O)c4c(F)cc5c(cnn5C)c4F)cc23)s1 [Example 97, 4,6-Difluoro-1-methyl-N-(3-(5-methylthiophen-2-yl)-1H-indazol-5-yl)-1H-indazole-5-carboxamide]
3 | ≤ 100 | 100 to 1000 | – | O=C(Nc1ccc2[nH]nc(-c3ccoc3)c2c1)c1ccc2ocnc2c1 [Example 126, N-(3-(Furan-3-yl)-1H-indazol-5-yl)benzo[d]oxazole-5-carboxamide]
4 | ≤ 100 | 100 to 1000 | – | O=C(Nc1ccc2[nH]nc(-c3ccoc3)c2c1)c1nc2cnccc2s1 [Example 170, N-(3-(Furan-3-yl)-1H-indazol-5-yl)thiazolo[4,5-c]pyridine-2-carboxamide]
5 | ≤ 100 | 100 to 1000 | – | Cn1ncc2cc(C(=O)Nc3ccc4[nH]nc(-c5cnco5)c4c3)ncc21 [Example 167, 1-Methyl-N-(3-(oxazol-5-yl)-1H-indazol-5-yl)-1H-pyrazolo[3,4-c]pyridine-5-carboxamide]
6 | 1000 to 10000 | 1000 to 10000 | – | O=C(Nc1ccc2[nH]nc(-c3ccoc3)c2c1)C1CCc2cncn2C1 (single isomer, unassigned) [Example 173b]
7 | 1000 to 10000 | 1000 to 10000 | – | Cc1cc2nn(C)nc2cc1C(=O)Nc1ccc2[nH]nc(C)c2c1 [Example 3, 2,6-Dimethyl-N-(3-methyl-1H-indazol-5-yl)-2H-benzo[d][1,2,3]triazole-5-carboxamide]
8 | ≤ 100 | ≤ 100 | – | Cc1cc(-c2n[nH]c3ccc(NC(=O)c4c(F)cc5c(cnn5C)c4F)cc23)cc(C)n1 [Example 83, N-(3-(2,6-Dimethylpyridin-4-yl)-1H-indazol-5-yl)-4,6-difluoro-1-methyl-1H-indazole-5-carboxamide]
9 | ≤ 100 | 100 to 1000 | – | Cn1nccc1-c1n[nH]c2ccc(NC(=O)c3c(F)cc4c(cnn4C)c3F)cc12 [Example 96, 4,6-Difluoro-1-methyl-N-(3-(1-methyl-1H-pyrazol-5-yl)-1H-indazol-5-yl)-1H-indazole-5-carboxamide]
10 | 1000 to 10000 | – | > 10000 | Cn1ncc2c(F)c(C(=O)Nc3ccc4[nH]nc(-c5ccccc5OC(F)(F)F)c4c3)c(F)cc21 [Example 93, 4,6-Difluoro-1-methyl-N-(3-(2-(trifluoromethoxy)phenyl)-1H-indazol-5-yl)-1H-indazole-5-carboxamide]
11 | ≤ 100 | 100 to 1000 | – | O=C(Nc1ccc2[nH]nc(-c3ccoc3)c2c1)c1ccc2ncsc2c1 [Example 123, N-(3-(Furan-3-yl)-1H-indazol-5-yl)benzo[d]thiazole-6-carboxamide]
12 | 100 to 1000 | 100 to 1000 | – | Cn1cnc2cc(C(=O)Nc3ccc4[nH]nc(-c5ccoc5)c4c3)ccc21 [Example 132, N-(3-(Furan-3-yl)-1H-indazol-5-yl)-1-methyl-1H-benzo[d]imidazole-5-carboxamide]
13 | ≤ 100 | ≤ 100 | – | Cc1cccc(-c2n[nH]c3ccc(NC(=O)c4c(F)cc5c(cnn5C)c4F)cc23)c1 [Example 76, 4,6-Difluoro-1-methyl-N-(3-(m-tolyl)-1H-indazol-5-yl)-1H-indazole-5-carboxamide]
14 | 100 to 1000 | 1000 to 10000 | – | Cn1ncc2c(F)c(C(=O)Nc3ccc4[nH]nc(N5CCCC5)c4c3)c(F)cc21 [Example 108, 4,6-Difluoro-1-methyl-N-(3-(pyrrolidin-1-yl)-1H-indazol-5-yl)-1H-indazole-5-carboxamide]
15 | ≤ 100 | ≤ 100 | – | Cc1cc2c(cnn2C)c(C)c1C(=O)Nc1ccc2[nH]nc(-c3ccoc3)c2c1 [Example 157, N-(3-(Furan-3-yl)-1H-indazol-5-yl)-1,4,6-trimethyl-1H-indazole-5-carboxamide]
16 | ≤ 100 | ≤ 100 | – | Cc1cn2cncc2cc1C(=O)Nc1ccc2[nH]nc(-c3ccoc3)c2c1 [Example 152, N-(3-(Furan-3-yl)-1H-indazol-5-yl)-6-methylimidazo[1,5-a]pyridine-7-carboxamide]
17 | ≤ 100 | 100 to 1000 | – | Cn1ncc2c(F)c(C(=O)Nc3ccc4[nH]nc(-n5ccnc5)c4c3)c(F)cc21 [Example 141, N-(3-(1H-Imidazol-1-yl)-1H-indazol-5-yl)-4,6-difluoro-1-methyl-1H-indazole-5-carboxamide]
18 | ≤ 100 | ≤ 100 | – | COc1cccc(-c2n[nH]c3ccc(NC(=O)c4c(F)cc5c(cnn5C)c4F)cc23)c1 [Example 84, 4,6-Difluoro-N-(3-(3-methoxyphenyl)-1H-indazol-5-yl)-1-methyl-1H-indazole-5-carboxamide]
19 | ≤ 100 | 1000 to 10000 | – | Cc1cc2cncn2c(C)c1C(=O)Nc1ccc2[nH]nc(C)c2c1 [Example 55, 5,7-Dimethyl-N-(3-methyl-1H-indazol-5-yl)imidazo[1,5-a]pyridine-6-carboxamide]
20 | ≤ 100 | 100 to 1000 | – | Cc1oncc1-c1n[nH]c2ccc(NC(=O)c3c(F)cc4c(cnn4C)c3F)cc12 [Example 29, 4,6-Difluoro-1-methyl-N-(3-(5-methylisoxazol-4-yl)-1H-indazol-5-yl)-1H-indazole-5-carboxamide]
21 | ≤ 100 | 100 to 1000 | – | COc1ccncc1-c1n[nH]c2ccc(NC(=O)c3c(F)cc4c(cnn4C)c3F)cc12 [Example 102, 4,6-Difluoro-N-(3-(4-methoxypyridin-3-yl)-1H-indazol-5-yl)-1-methyl-1H-indazole-5-carboxamide]
22 | 100 to 1000 | 1000 to 10000 | – | Cc1cnccc1-c1n[nH]c2ccc(NC(=O)c3c(F)cc4c(cnn4C)c3F)cc12 [Example 40, 4,6-Difluoro-1-methyl-N-(3-(3-methylpyridin-4-yl)-1H-indazol-5-yl)-1H-indazole-5-carboxamide]
23 | ≤ 100 | ≤ 100 | – | Cn1ncc2c(F)c(C(=O)Nc3ccc4[nH]nc(-c5ccc(N6CCOCC6)cc5)c4c3)c(F)cc21 [Example 94, 4,6-Difluoro-1-methyl-N-(3-(4-morpholinophenyl)-1H-indazol-5-yl)-1H-indazole-5-carboxamide]
24 | ≤ 100 | ≤ 100 | – | Cc1cc2cnnn2cc1C(=O)Nc1ccc2[nH]nc(-c3ccccc3)c2c1 [Example 43, 5-Methyl-N-(3-phenyl-1H-indazol-5-yl)-[1,2,3]triazolo[1,5-a]pyridine-6-carboxamide]
25 | ≤ 100 | 100 to 1000 | – | COc1ccc(C)cc1-c1n[nH]c2ccc(NC(=O)c3c(F)cc4c(cnn4C)c3F)cc12 [Example 89, 4,6-Difluoro-N-(3-(2-methoxy-5-methylphenyl)-1H-indazol-5-yl)-1-methyl-1H-indazole-5-carboxamide]
26 | ≤ 100 | 100 to 1000 | – | Cc1nocc1-c1n[nH]c2ccc(NC(=O)c3c(F)cc4c(cnn4C)c3F)cc12 [Example 30, 4,6-Difluoro-1-methyl-N-(3-(3-methylisoxazol-4-yl)-1H-indazol-5-yl)-1H-indazole-5-carboxamide]
27 | ≤ 100 | 100 to 1000 | – | Cn1cc2nc(C(=O)Nc3ccc4[nH]nc(-c5cnco5)c4c3)ccc2n1 [Example 166, 2-Methyl-N-(3-(oxazol-5-yl)-1H-indazol-5-yl)-2H-pyrazolo[4,3-b]pyridine-5-carboxamide]
28 | 1000 to 10000 | – | > 10000 | Cc1n[nH]c2ccc(NC(=O)c3cc4nn[nH]c4cc3C(F)(F)F)cc12 [Example 10, N-(3-Methyl-1H-indazol-5-yl)-6-(trifluoromethyl)-1H-benzo[d][1,2,3]triazole-5-carboxamide]
29 | ≤ 100 | ≤ 100 | – | Cc1cc2c(C)ncn2c(C)c1C(=O)Nc1ccc2[nH]nc(-c3ccoc3)c2c1 [Example 147, N-(3-(Furan-3-yl)-1H-indazol-5-yl)-1,5,7-trimethylimidazo[1,5-a]pyridine-6-carboxamide]
30 | 100 to 1000 | 1000 to 10000 | – | Cn1ncc2c(F)c(C(=O)Nc3ccc4[nH]nc(C5=CCCO5)c4c3)c(F)cc21 [Example 72, N-(3-(4,5-Dihydrofuran-2-yl)-1H-indazol-5-yl)-4,6-difluoro-1-methyl-1H-indazole-5-carboxamide]
